In publication PMC7509492, “To What Extent Do Fluorophores Bias the Biological Activity of Peptides? A Practical Approach Using Membrane-Active Peptides as Models” (Frontiers in Bioengineering and Biotechnology, 2020):
Peptide text beside a SMILES is read from it. * marks the point of attachment. RhodamineB = CCN(CC)c1ccc2c(-c3ccccc3C(=O)*)c3ccc(=[N+](CC)CC)cc-3oc2c1; X1 = CC[N+]1=C(C=CC=C2N(CCCCCC(=O)*)c3ccccc3C2(C)C)C(C)(C)c2ccccc21; 5FAM = O=C1OC2(c3ccc(O)cc3Oc3cc(O)ccc32)c2ccc(C(=O)*)cc21

Columns and labels:
human RBCs = assay: Hemolytic activity on human red blood cells; settings: Table 1, human RBCs in 1x PBS pH 7.4, 24 h, 37°C, peptide 0.01-100 μM, mean ± SD, triplicates of three independent experiments; for Hemolytic activity HC10: concentration causing 10% hemolysis, hemoglobin absorbance 570 nm; for Hemolytic activity HC50: concentration causing 50% hemolysis; for Hemolytic activity HC50 / Hemolytic activity HC90: absorbance 570 nm; for Hemolytic activity HC90: concentration causing 90% hemolysis
Experimental: Fresh human blood was collected in EDTA tubes and centrifuged at 1,000 × g for 10 min at 4°C. The supernatant was discharged, and the pellet containing RBCs was washed three times with 1× PBS (137 mM NaCl, 2.7 mM KCl, 10 mM Na2HPO4, and 1.8 mM KH2PO4, pH 7.4) and resuspended in 1× PBS to obtain a 2.0% (v/v) suspension. Then, RBCs were added to centrifuge tubes containing two-fold serially diluted peptides to a final concentration ranging from 0.01 to 100 μM. The suspension was incubated for 24 h at 37°C with gentle stirring. After that, samples were centrifuged for 2 min at 1,000 × g. Supernatants were transferred to 96-well plates, and the hemoglobin released measured by absorbance at 570 nm in an Infinite F200 TECAN plate reader. 1× PBS with no peptides and Triton X-100 at 1 and 4% (v/v) were used as negative and positive controls, respectively. Hemolytic activity (%) was determined using the following equation:
(2) Hemolyticactivity(%)=AbsPT-AbsNC/AbsPC-AbsNC
where, AbsPT is the absorbance of treated samples, AbsNC is the absorbance from negative control, and AbsPC absorbance from positive control.
HC50 values were determined using the GraphPad Prism 7.0 software using a log(inhibitor) vs. normalized response. Experiments were performed on different days using independent blood donors.
(range from 0.01 to 100 μM). The percentage of hemolysis was determined by the absorbance of hemoglobin released into the supernatant. Melittin was included as a control peptide with hemolytic properties. The values were obtained from triplicates of three independent experiments. Error bars, S.D.

MDA-MB-231 cells = assay: CellTiter-Blue cell viability assay, MDA-MB-231; assay type: cell-based, human; settings: peptide 0.01-100 μM, mean ± SD, triplicates of three independent experiments; for Cytotoxicity MDA-MB-231 cells IC10: Table 1, concentration causing 10% cell death; for Cytotoxicity MDA-MB-231 cells IC10 / IC90: 24 h; for IC50: Table 1, 24 h, read-out: Cytotoxicity MDA-MB-231 cells IC50; for IC90: Table 1, concentration causing 90% cell death, read-out: Cytotoxicity MDA-MB-231 cells IC90
Experimental: (§1) Peptides cytotoxicity against both HBEC-5i and MDA-MB-231 cells was determined using CellTiter-Blue® Cell Viability Assay, according to the manufacturer’s instructions. The assay is based on the ability of viable cells to reduce resazurin into resorufin, a highly fluorescent metabolite. […] Therefore, using this methodology is possible to distinguish between metabolic and non-metabolic cells and indirectly determine the cytotoxicity of peptides. Briefly, HBEC-5i and MDA-MB-231 cells were carefully detached from T-flasks, as described previously, and seeded 15,000/100 and 10,000/100 μL, respectively, in 96-well plates (Corning, United States) and incubated for 24 h. After medium removal, cells were washed two times with 1× PBS and 100 μL of previously diluted peptides (range between 0.01 and 100 μM) in either DMEM or DMEM:F12 medium were added to MDA-MB-231 or HBEC-5i cells, respectively. After 24 h incubation, cells were washed two times with 1× PBS, and 20 μL of CellTiter-Blue® Reagent (diluted in 100 μL of medium) was added to each well and incubated for 3 h in a humidified atmosphere of 5% CO2 at 37°C. The fluorescence intensity was measured at λ with an excitation of 560 nm and maximum emission at 590 nm using the infinite F200 TECAN plate reader. Medium and 1% Triton X-100-containing medium were used as positive controls (100% cell viability) and negative controls (0% cell viability), respectively. Cell viability (%) was determined using the following equation:
(§2) (7) CellViability=FP-FNC/FPC-FNC×100
(§3) Fp is the fluorescence intensity of peptide-treated cells, FNC is the fluorescence intensity for negative controls, and FPC is the fluorescence intensity for positive controls.
(§4) Experiments were performed on different days using independently grown cell cultures.
(§5) FIGURE 4 In vitro cytotoxicity unlabeled- and labeled-peptides. (A,B) Cytotoxicity against HBEC-5i cells. (C,D) Cytotoxicity against MDA-MB-231 cells. 1.5 × 10^4 and 1.0 × 10^4 cells of HBEC-5i and MDA-MB-231 cells, respectively, were incubated with various concentrations of peptides (range from 0.01 to 100 μM). The percentage of viability was determined using CellTiter® Blue reagent assay. […] Error bars, S.D.

[1] = CellTiter-Blue cell viability assay, MDA-MB-231; assay type: cell-based, human; settings: human, MDA-MB-231 cells, mean ± SD, triplicates of three independent experiments; for IC90 at 24 h: Table 1, concentration causing 90% cell death, peptide 0.01-100 μM, read-out: Cytotoxicity MDA-MB-231 cells IC90; for IC50 at 24 h: Table 1, peptide 0.01-100 μM, read-out: Cytotoxicity MDA-MB-231 cells IC50
Experimental: as §1, §2, §3, §4, §5

Compound | Hemolytic activity HC10 (human RBCs) | Hemolytic activity HC50 (human RBCs) | Hemolytic activity HC90 (human RBCs) | Cytotoxicity MDA-MB-231 cells IC10 (MDA-MB-231 cells) | IC90 at 24 h [1] | IC50 at 24 h [1] | IC50 (MDA-MB-231 cells) | IC90 (MDA-MB-231 cells)
CC[C@H](C)[C@H](NC(=O)[C@H](CCCCN)NC(=O)[C@H](CCCCN)NC(=O)[C@H](CC(C)C)NC(=O)[C@H](CCCNC(=N)N)NC(=O)[C@H](CCCCN)NC(=O)[C@H](CCCCN)NC(=O)c1ccc2c(c1)C(=O)OC21c2ccc(O)cc2Oc2cc(O)ccc21)C(=O)N[C@@H](Cc1ccccc1)C(=O)N[C@@H](CCCCN)C(=O)N[C@@H](CCCCN)C(=O)N1CCC[C@H]1C(=O)N[C@@H](CCSC)C(=O)N[C@H](C(=O)N[C@H](C(=O)NCC(=O)N[C@H](C(=O)N[C@H](C(=O)N[C@H](C(=O)N1CCC[C@H]1C(=O)N[C@@H](Cc1ccccc1)C(N)=O)[C@@H](C)CC)[C@@H](C)O)C(C)C)[C@@H](C)CC)C(C)C [CF-Ctn[15-34]] (5FAM-KKRLKKIFKKPMVIGVTIPF-NH2) | >200 µM | >200 µM | >200 µM | 4.23 ± 1.02 µM | > 200 µM | > 200 µM |  | 
N=C(N)NCCC[C@H](NC(=O)[C@H](CCCNC(=N)N)NC(=O)[C@@H]1CCCN1C(=O)[C@H](CCCNC(=N)N)NC(=O)[C@H](CCCNC(=N)N)NC(=O)[C@H](CCCNC(=N)N)NC(=O)[C@H](Cc1c[nH]c2ccccc12)NC(=O)[C@H](CCCNC(=N)N)NC(=O)[C@H](CCCNC(=N)N)NC(=O)[C@H](CCCNC(=N)N)NC(=O)[C@H](CCCNC(=N)N)NC(=O)[C@H](CCCNC(=N)N)NC(=O)[C@H](Cc1c[nH]c2ccccc12)NC(=O)[C@H](CCCNC(=N)N)NC(=O)[C@H](CCCNC(=N)N)NC(=O)[C@H](Cc1ccc(O)cc1)NC(=O)[C@H](CCCNC(=N)N)NC(=O)[C@H](CCCNC(=N)N)NC(=O)[C@H](CCCNC(=N)N)NC(=O)[C@H](Cc1c[nH]c2ccccc12)NC(=O)c1ccc2c(c1)C(=O)OC21c2ccc(O)cc2Oc2cc(O)ccc21)C(N)=O [CF-vCPP2319] (5FAM-WRRRYRRWRRRRRWRRRPRR-NH2) | >200 µM | >200 µM | >200 µM | 1.26 ± 0.24 µM | 18.8 ± 1.87 µM | 4.72 ± 0.94 µM |  | 
CC[C@H](C)[C@H](NC(=O)[C@H](CCCCN)NC(=O)[C@H](CCCCN)NC(=O)[C@H](CC(C)C)NC(=O)[C@H](CCCNC(=N)N)NC(=O)[C@H](CCCCN)NC(=O)[C@H](CCCCN)NC(=O)CCCCCN1C(=CC=CC2=[N+](CC)c3ccccc3C2(C)C)C(C)(C)c2ccccc21)C(=O)N[C@@H](Cc1ccccc1)C(=O)N[C@@H](CCCCN)C(=O)N[C@@H](CCCCN)C(=O)N1CCC[C@H]1C(=O)N[C@@H](CCSC)C(=O)N[C@H](C(=O)N[C@H](C(=O)NCC(=O)N[C@H](C(=O)N[C@H](C(=O)N[C@H](C(=O)N1CCC[C@H]1C(=O)N[C@@H](Cc1ccccc1)C(N)=O)[C@@H](C)CC)[C@@H](C)O)C(C)C)[C@@H](C)CC)C(C)C [Q570-Ctn[15-34]] (X1-KKRLKKIFKKPMVIGVTIPF-NH2) |  |  |  | 3.08 ± 1.22 µM | > 200 µM | 144 ± 4.21 µM |  | 
CC[N+]1=C(C=CC=C2N(CCCCCC(=O)N[C@@H](Cc3c[nH]c4ccccc34)C(=O)N[C@@H](CCCNC(=N)N)C(=O)N[C@@H](CCCNC(=N)N)C(=O)N[C@@H](CCCNC(=N)N)C(=O)N[C@@H](Cc3ccc(O)cc3)C(=O)N[C@@H](CCCNC(=N)N)C(=O)N[C@@H](CCCNC(=N)N)C(=O)N[C@@H](Cc3c[nH]c4ccccc34)C(=O)N[C@@H](CCCNC(=N)N)C(=O)N[C@@H](CCCNC(=N)N)C(=O)N[C@@H](CCCNC(=N)N)C(=O)N[C@@H](CCCNC(=N)N)C(=O)N[C@@H](CCCNC(=N)N)C(=O)N[C@@H](Cc3c[nH]c4ccccc34)C(=O)N[C@@H](CCCNC(=N)N)C(=O)N[C@@H](CCCNC(=N)N)C(=O)N[C@@H](CCCNC(=N)N)C(=O)N3CCC[C@H]3C(=O)N[C@@H](CCCNC(=N)N)C(=O)N[C@@H](CCCNC(=N)N)C(N)=O)c3ccccc3C2(C)C)C(C)(C)c2ccccc21 [Q570-vCPP2319] (X1-WRRRYRRWRRRRRWRRRPRR-NH2) |  |  |  | 1.14 ± 0.34 µM | 16 ± 1.94 µM | 4.26 ± 1.03 µM |  | 
CC[C@H](C)[C@H](NC(=O)[C@H](CCCCN)NC(=O)[C@H](CCCCN)NC(=O)[C@H](CC(C)C)NC(=O)[C@H](CCCNC(=N)N)NC(=O)[C@H](CCCCN)NC(=O)[C@H](CCCCN)NC(=O)c1ccccc1-c1c2ccc(=[N+](CC)CC)cc-2oc2cc(N(CC)CC)ccc12)C(=O)N[C@@H](Cc1ccccc1)C(=O)N[C@@H](CCCCN)C(=O)N[C@@H](CCCCN)C(=O)N1CCC[C@H]1C(=O)N[C@@H](CCSC)C(=O)N[C@H](C(=O)N[C@H](C(=O)NCC(=O)N[C@H](C(=O)N[C@H](C(=O)N[C@H](C(=O)N1CCC[C@H]1C(=O)N[C@@H](Cc1ccccc1)C(N)=O)[C@@H](C)CC)[C@@H](C)O)C(C)C)[C@@H](C)CC)C(C)C [RhB-Ctn[15-34]] (RhodamineB-KKRLKKIFKKPMVIGVTIPF-NH2) | 3.29 ± 1.32 µM | 61.43 ± 4.33 µM | >200 µM | 2.97 ± 0.98 µM | > 200 µM | > 200 µM |  | 
CCN(CC)c1ccc2c(-c3ccccc3C(=O)N[C@@H](Cc3c[nH]c4ccccc34)C(=O)N[C@@H](CCCNC(=N)N)C(=O)N[C@@H](CCCNC(=N)N)C(=O)N[C@@H](CCCNC(=N)N)C(=O)N[C@@H](Cc3ccc(O)cc3)C(=O)N[C@@H](CCCNC(=N)N)C(=O)N[C@@H](CCCNC(=N)N)C(=O)N[C@@H](Cc3c[nH]c4ccccc34)C(=O)N[C@@H](CCCNC(=N)N)C(=O)N[C@@H](CCCNC(=N)N)C(=O)N[C@@H](CCCNC(=N)N)C(=O)N[C@@H](CCCNC(=N)N)C(=O)N[C@@H](CCCNC(=N)N)C(=O)N[C@@H](Cc3c[nH]c4ccccc34)C(=O)N[C@@H](CCCNC(=N)N)C(=O)N[C@@H](CCCNC(=N)N)C(=O)N[C@@H](CCCNC(=N)N)C(=O)N3CCC[C@H]3C(=O)N[C@@H](CCCNC(=N)N)C(=O)N[C@@H](CCCNC(=N)N)C(N)=O)c3ccc(=[N+](CC)CC)cc-3oc2c1 [RhB-vCPP2319] (RhodamineB-WRRRYRRWRRRRRWRRRPRR-NH2) | 2.43 ± 0.32 µM | 23.88 ± 2.24 µM | >200 µM | 1.13 ± 0.64 µM | 16.6 ± 1.31 µM | 4.11 ± 1.04 µM |  | 
TF3-KKRLKKIFKKPMVIGVTIPF-amide [TF3-Ctn[15-34], Ctn[15-34] labeled at the N-terminus with tide fluor 3] | 102.0 ± 6.20 µM | >200 µM | >200 µM | 2.57 ± 1.37 µM |  |  | 123 ± 3.84 µM | > 200 µM
TF3-WRRRYRRWRRRRRWRRRPRR-amide [TF3-vCPP2319, vCPP2319 labeled at the N-terminus with tide fluor 3] | 2.83 ± 0.97 µM | >200 µM | >200 µM | 1.05 ± 0.21 µM |  |  | 4.3 ± 0.03 µM | 17 ± 1.58 µM
